{
  "source": "patent US11980633B2",
  "about": "“Method for treating cancer using a combination of DNA-damaging agents and DNA-PK inhibitors” (Vertex Pharmaceuticals Incorporated, priority 2016, dated 2024)",
  "system": "A549 lung cancer cells",
  "experiment": "Timing and duration of Compound B-2 exposure on sensitization of A549 cells to doxorubicin hydrochloride (24 h); CellTiterGlo viability at 6 days, Bliss analysis",
  "type": "cell-based, human",
  "design": "scale not given here",
  "protocol": "Cell lines, reagents, equipment, software: The human cancer cell line A549 (CCL-185) was obtained from American Type Culture Collection (ATCC; Manassas, VA). Compound B-2 used in these experiments was not prepared as a co-crystal. A 10 mM stock solution of Compound B-2 was prepared in DMSO (ATCC catalog #4-X) and stored at −20° C. Doxorubicin hydrochloride (dox) was obtained from Sigma (St. Louis, MO) (catalog #D1515), dissolved in DMSO to a 10 mM concentration and stored at −20° C.\nCell culture: The A549 human lung cancer cell line was cultured in DMEM (Life Technologies, catalog #11995) supplemented with 10% fetal bovine serum (Hyclone, catalog #SH30071.03), 1× GlutaMAX (Life Technologies, catalog #35050-061), pyruvate (Life Technologies, catalog #11360-070) and 1× Penicillin/Streptomycin (Life Technologies, catalog #15070) (complete medium). Cells were maintained at a sub-confluent state by passaging every 3-4 days. Cells were plated at 1000 cells per well in a 96-well, clear-bottomed microplate (Corning, catalog #3904), and incubated in a 37° C., 5% CO2 incubator attach overnight prior to compound addition.\nTreatment with Compound B-2 and Doxorubicin hydrochloride: Ten mM stocks of Compound B-2 and doxorubicin hydrochloride were made in DMSO and added in combination to the plated cells using an HP digital dispenser D300 (Tecan, Switzerland). For these experiments, combinations with Compound B-2 at all concentrations were run in singlicate using a combination matrix in which Compound B-2 was added as a titration from 20 μM to 0.1 μM on the X-axis of the plate and doxorubicin hydrochloride added in a 2-fold dilution from 80 nM to 0.125 nM for the 6 day and 24 hour co-incubation experiments and 8 nM to 0.0125 nM for the rest of the experiments on the Y-axis. One row contained only the Compound B-2 titration and one column only the doxorubicin hydrochloride titration. Two columns of cells were used as a no-treatment control from which the fractional survival of the treated cells was determined. Cells were cultured at 37° C., 5% CO2, 95% air and 100% relative humidity. The timing of compound addition, the washout of the compounds from the wells of the plates and re-addition of doxorubicin hydrochloride was as detailed in FIG. 1. Briefly, the media from all of the wells in the plate were removed by hand using a multi-pipette, fresh (no compound) media was added, then removed again and then fresh media was added one last time. The re-addition of doxorubicin hydrochloride, where indicated, was performed using the HP D300 as outlined in FIG. 1. After 24 h, all plates were washed as detailed above and fresh medium (no compound) added. The plates were incubated for an additional 5 days (6 days in total).\nCell Viability Analysis: Six days after initial compound addition, 50 μL of CellTiterGlo (prepared according to manufacturer's protocol) was added to each well of the compound titration plates. Luminescence was read on a Pherastar FS luminescence reader (BMG Labtech, Offenberg, Germany) and these values were used for all further analyses.\nComputational Methods: Cell viabilities were evaluated for a matrix of doxorubicin hydrochloride and Compound B-2 concentrations in a series of experiments testing different times of Compound B-2 addition and durations of Compound B-2 exposure. The data from each of these experiments were analyzed separately. The steps in the analysis of each experiment are described below. • 1. For each Compound B-2 concentration, the EC50 of doxorubicin hydrochloride was calculated using Prism software. The concentration in the matrix of doxorubicin hydrochloride concentrations closest to the EC50 was then identified. • 2. […]",
  "data": [
    {"smiles": "[2H]c1nc(C)nc([2H])c1-c1cc(NC[C@@H](C)c2cccc3c(C(=O)NC)ccnc23)ncn1", "note": "[Compound B-2]", "values": [
      {"measurement": "Bliss AUC", "setting": "Experiment A: Compound B-2 added 0 h after doxorubicin hydrochloride, exposure 24 h", "result": 728},
      {"measurement": "Bliss AUC", "setting": "Experiment B: Compound B-2 added at 0 h, exposure 16 h", "result": 101},
      {"measurement": "Bliss AUC", "setting": "Experiment C: Compound B-2 added at 8 h, exposure 16 h", "result": 710},
      {"measurement": "Bliss AUC", "setting": "Experiment E: Compound B-2 added at 4 h, exposure 12 h", "result": 266},
      {"measurement": "Bliss AUC", "setting": "Experiment G: Compound B-2 added at 12 h, exposure 12 h", "result": 415},
      {"measurement": "Bliss AUC", "setting": "Experiment H: Compound B-2 added at 0 h, exposure 8 h", "result": 71},
      {"measurement": "Bliss AUC", "setting": "Experiment I: Compound B-2 added at 4 h, exposure 8 h", "result": 49},
      {"measurement": "Bliss AUC", "setting": "Experiment J: Compound B-2 added at 8 h, exposure 8 h", "result": 12},
      {"measurement": "Bliss AUC", "setting": "Experiment K: Compound B-2 added at 12 h, exposure 8 h", "result": 124},
      {"measurement": "Bliss AUC", "setting": "Experiment L: Compound B-2 added at 16 h, exposure 8 h", "result": 323}
    ]}
  ]
}
